Results published in the kinase profiling compilation of Christmann-Franck et al. (2016).

Experiments:
FGFR2 (human) = FGFR2 (human) (UniProt P21802); experiment: Caliper, Mobility shift assay off-chip
ABL2 (human) = ABL2 (human) (UniProt P42684); experiment: Caliper, Mobility shift assay off-chip
AURKA (human) = AURKA (human) (UniProt O14965); experiment: Caliper, Mobility shift assay off-chip
CSF1R (human) = CSF1R (human) (UniProt P07333); experiment: Caliper, Mobility shift assay off-chip
DDR1 (human) = DDR1 (human) (UniProt Q08345); experiment: Caliper, Mobility shift assay off-chip
DDR2 (human) = DDR2 (human) (UniProt Q16832); experiment: Caliper, Mobility shift assay off-chip
EPHA6 (human) = EPHA6 (human) (UniProt Q9UF33); experiment: Caliper, Mobility shift assay off-chip
HIPK4 (human) = HIPK4 (human) (UniProt Q8NE63); experiment: Caliper, Mobility shift assay off-chip
MAPK14 (human) = MAPK14 (human) (UniProt Q16539); experiment: Caliper, Mobility shift assay off-chip
MUSK (human) = MUSK (human) (UniProt O15146); experiment: Caliper, Mobility shift assay off-chip
PDGFRB (human) = PDGFRB (human) (UniProt P09619); experiment: Caliper, Mobility shift assay off-chip
PRKAA1 (human) = PRKAA1 (human) (UniProt Q13131); experiment: Caliper, Mobility shift assay off-chip
PRKAA2 (human) = PRKAA2 (human) (UniProt P54646); experiment: Caliper, Mobility shift assay off-chip
MAP2K3 (human) = MAP2K3 (human) (UniProt P46734); experiment: ELISA
MAP2K6 (human) = MAP2K6 (human) (UniProt P52564); experiment: ELISA
PDGFRA (human) = PDGFRA (human) (UniProt P16234); experiment: Caliper, Mobility shift assay off-chip
BRAF (human) = BRAF (human) (UniProt P15056); experiment: ELISA
RAF1 (human) = RAF1 (human) (UniProt P04049); experiment: ELISA

ABL2 (human), sequence (P42684 whole entry, looked up): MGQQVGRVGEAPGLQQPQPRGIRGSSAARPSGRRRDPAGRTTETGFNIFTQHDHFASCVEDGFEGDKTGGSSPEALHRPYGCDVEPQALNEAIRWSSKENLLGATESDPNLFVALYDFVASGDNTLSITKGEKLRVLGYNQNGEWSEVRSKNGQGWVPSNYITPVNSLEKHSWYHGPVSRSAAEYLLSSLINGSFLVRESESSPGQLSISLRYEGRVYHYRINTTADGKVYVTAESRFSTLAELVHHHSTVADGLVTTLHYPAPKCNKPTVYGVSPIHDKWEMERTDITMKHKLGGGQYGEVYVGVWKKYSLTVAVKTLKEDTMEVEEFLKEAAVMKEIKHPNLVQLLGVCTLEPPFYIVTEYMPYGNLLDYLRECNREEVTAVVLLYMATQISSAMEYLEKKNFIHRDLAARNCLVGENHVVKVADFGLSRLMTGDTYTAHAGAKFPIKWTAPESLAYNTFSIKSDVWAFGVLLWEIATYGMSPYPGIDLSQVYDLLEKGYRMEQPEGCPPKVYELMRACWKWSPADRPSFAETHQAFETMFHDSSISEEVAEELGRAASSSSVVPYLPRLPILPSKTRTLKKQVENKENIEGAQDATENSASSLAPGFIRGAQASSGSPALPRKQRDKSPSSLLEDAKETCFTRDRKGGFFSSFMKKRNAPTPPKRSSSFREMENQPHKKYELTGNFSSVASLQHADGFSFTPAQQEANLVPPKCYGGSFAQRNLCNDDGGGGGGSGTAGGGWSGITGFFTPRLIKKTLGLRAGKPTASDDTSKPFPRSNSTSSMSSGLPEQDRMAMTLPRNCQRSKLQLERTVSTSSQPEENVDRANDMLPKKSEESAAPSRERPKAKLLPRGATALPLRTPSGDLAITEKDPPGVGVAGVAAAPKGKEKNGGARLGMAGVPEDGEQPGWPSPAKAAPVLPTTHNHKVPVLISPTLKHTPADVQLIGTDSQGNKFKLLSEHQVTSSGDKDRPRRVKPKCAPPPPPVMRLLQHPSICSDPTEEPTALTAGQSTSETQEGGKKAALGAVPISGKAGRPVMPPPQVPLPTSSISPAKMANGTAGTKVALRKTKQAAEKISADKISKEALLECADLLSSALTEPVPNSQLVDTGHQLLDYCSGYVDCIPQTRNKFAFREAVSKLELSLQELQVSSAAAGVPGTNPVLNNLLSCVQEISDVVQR
PRKAA2 (human), sequence (P54646 whole entry, looked up): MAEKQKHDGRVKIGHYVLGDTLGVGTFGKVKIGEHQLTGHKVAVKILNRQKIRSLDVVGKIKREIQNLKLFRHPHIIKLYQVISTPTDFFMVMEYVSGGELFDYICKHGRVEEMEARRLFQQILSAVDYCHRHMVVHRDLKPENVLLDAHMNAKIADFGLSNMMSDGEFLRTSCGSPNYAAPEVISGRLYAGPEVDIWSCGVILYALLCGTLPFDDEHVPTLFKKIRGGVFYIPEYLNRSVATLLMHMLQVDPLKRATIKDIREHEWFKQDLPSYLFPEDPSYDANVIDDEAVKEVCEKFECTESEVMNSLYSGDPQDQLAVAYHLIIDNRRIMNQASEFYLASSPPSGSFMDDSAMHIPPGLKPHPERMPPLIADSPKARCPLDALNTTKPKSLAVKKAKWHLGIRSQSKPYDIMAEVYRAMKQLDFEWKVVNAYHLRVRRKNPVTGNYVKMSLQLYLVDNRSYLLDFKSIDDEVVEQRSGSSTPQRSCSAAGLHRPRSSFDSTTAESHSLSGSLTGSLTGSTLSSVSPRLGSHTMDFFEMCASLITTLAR
BRAF (human), sequence (P15056 whole entry, looked up): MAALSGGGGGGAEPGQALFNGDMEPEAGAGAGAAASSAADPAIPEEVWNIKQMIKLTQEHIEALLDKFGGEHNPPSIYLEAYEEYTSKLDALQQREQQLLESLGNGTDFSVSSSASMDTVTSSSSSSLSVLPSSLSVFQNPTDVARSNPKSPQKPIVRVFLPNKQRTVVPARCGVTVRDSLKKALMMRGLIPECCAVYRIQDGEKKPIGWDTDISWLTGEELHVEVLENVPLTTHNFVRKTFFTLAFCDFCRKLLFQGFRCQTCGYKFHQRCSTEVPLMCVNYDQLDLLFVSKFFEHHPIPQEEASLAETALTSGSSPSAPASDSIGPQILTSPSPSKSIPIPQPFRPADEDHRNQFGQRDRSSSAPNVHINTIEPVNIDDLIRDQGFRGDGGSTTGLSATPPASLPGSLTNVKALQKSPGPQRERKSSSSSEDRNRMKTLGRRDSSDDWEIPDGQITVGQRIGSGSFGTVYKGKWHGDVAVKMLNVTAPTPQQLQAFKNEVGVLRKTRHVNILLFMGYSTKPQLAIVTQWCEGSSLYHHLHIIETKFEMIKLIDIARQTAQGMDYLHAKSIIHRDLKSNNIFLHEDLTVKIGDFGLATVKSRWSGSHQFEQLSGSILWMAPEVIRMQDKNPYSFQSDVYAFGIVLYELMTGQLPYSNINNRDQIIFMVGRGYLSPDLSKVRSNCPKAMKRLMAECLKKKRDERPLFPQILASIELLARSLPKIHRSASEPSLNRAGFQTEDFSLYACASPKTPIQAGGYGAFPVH
HIPK4 (human), sequence (Q8NE63 whole entry, looked up): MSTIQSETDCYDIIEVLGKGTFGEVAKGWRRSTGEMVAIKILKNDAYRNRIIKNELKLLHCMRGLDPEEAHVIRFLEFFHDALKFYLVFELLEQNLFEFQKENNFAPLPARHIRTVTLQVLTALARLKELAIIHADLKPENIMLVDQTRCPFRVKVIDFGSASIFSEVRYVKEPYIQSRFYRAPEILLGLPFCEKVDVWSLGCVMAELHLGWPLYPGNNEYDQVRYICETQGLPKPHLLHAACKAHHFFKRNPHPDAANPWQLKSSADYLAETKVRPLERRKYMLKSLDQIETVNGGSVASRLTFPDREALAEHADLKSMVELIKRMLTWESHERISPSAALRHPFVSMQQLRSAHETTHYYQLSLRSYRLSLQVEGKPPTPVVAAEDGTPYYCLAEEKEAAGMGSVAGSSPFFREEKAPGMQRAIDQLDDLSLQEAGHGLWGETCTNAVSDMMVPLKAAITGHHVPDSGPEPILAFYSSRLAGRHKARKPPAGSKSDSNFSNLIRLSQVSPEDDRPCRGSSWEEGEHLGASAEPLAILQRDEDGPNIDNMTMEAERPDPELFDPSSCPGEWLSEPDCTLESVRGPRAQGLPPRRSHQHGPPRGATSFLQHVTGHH
AURKA (human), sequence (O14965 whole entry, looked up): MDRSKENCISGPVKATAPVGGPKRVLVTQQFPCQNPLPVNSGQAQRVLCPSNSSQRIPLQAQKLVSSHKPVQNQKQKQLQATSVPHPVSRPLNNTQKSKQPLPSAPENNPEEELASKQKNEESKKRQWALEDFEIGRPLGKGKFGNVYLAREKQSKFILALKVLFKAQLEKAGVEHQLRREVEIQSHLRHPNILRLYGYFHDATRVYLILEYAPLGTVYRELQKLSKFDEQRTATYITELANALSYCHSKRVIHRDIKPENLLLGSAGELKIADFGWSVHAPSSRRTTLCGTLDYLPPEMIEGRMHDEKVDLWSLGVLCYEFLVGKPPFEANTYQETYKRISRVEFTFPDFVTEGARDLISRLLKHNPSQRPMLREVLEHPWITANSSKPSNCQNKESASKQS
EPHA6 (human), sequence (Q9UF33 whole entry, looked up): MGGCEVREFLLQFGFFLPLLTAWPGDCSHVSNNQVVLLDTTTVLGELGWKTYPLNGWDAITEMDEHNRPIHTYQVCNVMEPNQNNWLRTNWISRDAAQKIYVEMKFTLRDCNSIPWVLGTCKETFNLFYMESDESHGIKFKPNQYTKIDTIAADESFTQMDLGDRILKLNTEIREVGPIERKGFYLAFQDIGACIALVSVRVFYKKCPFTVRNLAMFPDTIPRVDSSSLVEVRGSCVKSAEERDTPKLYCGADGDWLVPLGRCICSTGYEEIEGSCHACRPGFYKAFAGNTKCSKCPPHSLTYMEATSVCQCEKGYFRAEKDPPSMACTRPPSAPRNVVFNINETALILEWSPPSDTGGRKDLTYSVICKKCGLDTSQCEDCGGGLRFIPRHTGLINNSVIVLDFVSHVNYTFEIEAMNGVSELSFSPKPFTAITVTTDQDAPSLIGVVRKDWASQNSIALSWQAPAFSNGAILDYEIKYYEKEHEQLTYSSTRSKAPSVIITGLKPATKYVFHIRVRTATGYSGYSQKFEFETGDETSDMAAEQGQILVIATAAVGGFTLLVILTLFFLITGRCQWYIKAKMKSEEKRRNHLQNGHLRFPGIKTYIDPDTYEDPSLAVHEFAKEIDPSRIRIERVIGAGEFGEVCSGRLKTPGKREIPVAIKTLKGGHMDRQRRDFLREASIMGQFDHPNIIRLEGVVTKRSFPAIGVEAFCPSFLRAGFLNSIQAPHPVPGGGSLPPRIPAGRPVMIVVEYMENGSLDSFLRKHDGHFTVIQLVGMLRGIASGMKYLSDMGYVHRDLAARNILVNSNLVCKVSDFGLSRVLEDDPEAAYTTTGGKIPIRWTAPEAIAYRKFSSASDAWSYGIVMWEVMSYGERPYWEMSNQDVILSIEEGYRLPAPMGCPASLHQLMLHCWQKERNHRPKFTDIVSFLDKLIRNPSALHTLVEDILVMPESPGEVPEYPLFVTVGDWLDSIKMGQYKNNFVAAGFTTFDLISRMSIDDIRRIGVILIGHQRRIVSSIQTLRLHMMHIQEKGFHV
MAP2K6 (human), sequence (P52564 whole entry, looked up): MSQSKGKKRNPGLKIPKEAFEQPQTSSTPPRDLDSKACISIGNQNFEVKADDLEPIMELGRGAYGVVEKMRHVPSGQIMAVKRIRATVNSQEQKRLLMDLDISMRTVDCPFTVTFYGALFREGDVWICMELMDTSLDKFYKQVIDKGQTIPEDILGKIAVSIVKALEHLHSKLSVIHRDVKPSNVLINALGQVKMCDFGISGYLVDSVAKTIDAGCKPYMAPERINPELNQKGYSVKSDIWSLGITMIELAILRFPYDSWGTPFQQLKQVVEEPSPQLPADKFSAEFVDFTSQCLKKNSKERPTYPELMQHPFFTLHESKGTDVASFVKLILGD

Cc1cc2c(F)c(Oc3ncnn4cc(OC[C@@H](C)O)c(C)c34)ccc2[nH]1
Ki (FGFR2 (human)): 18.1 nM

COc1cc2nccc(Oc3ccc(NC(=O)Nc4cc(C)on4)c(Cl)c3)c2cc1OC
Ki (ABL2 (human)): 52.5 nM
Ki (AURKA (human)): 86.5 nM
Ki (CSF1R (human)): 45.8 nM
Ki (DDR1 (human)): 52 nM
Ki (DDR2 (human)): 1.95 nM
Ki (EPHA6 (human)): 3.14 nM
Ki (HIPK4 (human)): 42.9 nM
Ki (MAPK14 (human)): 266 nM
Ki (MUSK (human)): 291 nM
Ki (PDGFRB (human)): 1.4 nM
Ki (PRKAA1 (human)): 1500 nM
Ki (PRKAA2 (human)): 1500 nM
Ki (MAP2K3 (human)): 272 nM
Ki (MAP2K6 (human)): 302 nM

Cc1ccc(F)c(NC(=O)Nc2ccc(-c3cccc4[nH]nc(N)c34)cc2)c1
Ki (ABL2 (human)): 5000 nM
Ki (PDGFRA (human)): 2.76 nM
Ki (PRKAA2 (human)): 1670 nM
Ki (BRAF (human)): 5000 nM
Ki (RAF1 (human)): 5000 nM
